Data published in US12435112B2, “Adenovirus comprising a modified adenovirus hexon protein” (UNIVERSITÄT ULM, priority 2019, dated 2025).

System: MSCs
Assay: Transduction of MSCs with or without enhancing molecules
Type: cell-based, human
Settings: enhancer pre-incubated with adenovirus
Method: Transduction of MSCs by HAdV5 or HAdV5-Mut3, with or without Enhancing Molecules
MSCs were seeded in 1 mL PL-containing BioWhittaker® Alpha minimum essential medium (Lonza) in 24-well plates. The next day, the indicated viral vector particles were pre-incubated with or without enhancing molecules for 30 minutes at 37° C. in a total volume of 300 μL in PL-free medium. As enhancing molecules, Factor X (250-2000 ng/mL), Spermidine (1-625 ng/μL), Spermine (1-1000 ng/μL), Polybrene (0.08-81 μg/μL), Poly-L-Lysine (1-25% v/v) and Lactoferrin (1-1000 μg/mL) were used. Subsequently, MSCs were washed and 500 μL PL-free medium was provided. Cells were transduced by adding 300 μL of the pre-incubated viral particles (resulting in the indicated pMOI) and incubated for 2 hours at 37° C. Afterwards, cells were washed, and 1 mL of PL-containing medium was added. 72 hours after transduction, MSCs were detached and eGFP expression was analyzed by flow cytometry.
Amount of Enhancers Used for Pre-Incubation of HAdV5:
Transduction of MSCs by HAdV5, HAdV5-Mut3, HAdV5-ΔCAR-Mut3, HAdV5-ΔHVR1 or HAdV5-Mut2
Transduction of MSCs with a pMOI of 1000 was performed as described in section “Transduction of MSCs by HAdV5 or HAdV5-Mut3, with or without enhancing molecules”, except that MSCs were detached and eGFP expression was analyzed by flow cytometry 24 hours after transduction. No enhancing molecules were used.

Compound	enhanced transduction of MSCs with adenoviruses by transduction enhancer
NCCCCNCCCN [Spermidine]	most pronounced
NCCCNCCCCNCCCN [Spermine]	most pronounced
